Values quoted from earlier work in EP2243483A1, “Amlodipine salt compositions for topical application” (priority 2009, dated 2010).
Where a name gives a salt, the structure may show the parent alone.

Assays:
2D6 = 2D6 (Homo sapiens, UniProt P10635)
2B6 = biological target: T1, 2B6 (Homo sapiens, UniProt P20813)
T1 sequence (P20813 1-491): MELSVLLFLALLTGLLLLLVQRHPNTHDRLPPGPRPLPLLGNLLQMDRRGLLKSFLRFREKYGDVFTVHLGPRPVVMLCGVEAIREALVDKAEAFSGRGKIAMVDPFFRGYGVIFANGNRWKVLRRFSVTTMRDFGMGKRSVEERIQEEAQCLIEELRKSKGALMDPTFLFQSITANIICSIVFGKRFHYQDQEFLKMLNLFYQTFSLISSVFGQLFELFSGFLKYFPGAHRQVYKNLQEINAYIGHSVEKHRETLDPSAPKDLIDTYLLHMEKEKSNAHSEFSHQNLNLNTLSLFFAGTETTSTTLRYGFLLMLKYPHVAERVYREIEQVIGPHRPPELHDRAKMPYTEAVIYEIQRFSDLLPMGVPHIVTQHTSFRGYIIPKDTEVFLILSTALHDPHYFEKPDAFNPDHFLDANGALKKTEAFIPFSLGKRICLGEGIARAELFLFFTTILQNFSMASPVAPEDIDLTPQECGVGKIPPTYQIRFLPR

CYP 1A2 isoenzyme = biological target: T2, CYP 1A2 isoenzyme (Homo sapiens, UniProt P05177)
T2 sequence (P05177 1-516): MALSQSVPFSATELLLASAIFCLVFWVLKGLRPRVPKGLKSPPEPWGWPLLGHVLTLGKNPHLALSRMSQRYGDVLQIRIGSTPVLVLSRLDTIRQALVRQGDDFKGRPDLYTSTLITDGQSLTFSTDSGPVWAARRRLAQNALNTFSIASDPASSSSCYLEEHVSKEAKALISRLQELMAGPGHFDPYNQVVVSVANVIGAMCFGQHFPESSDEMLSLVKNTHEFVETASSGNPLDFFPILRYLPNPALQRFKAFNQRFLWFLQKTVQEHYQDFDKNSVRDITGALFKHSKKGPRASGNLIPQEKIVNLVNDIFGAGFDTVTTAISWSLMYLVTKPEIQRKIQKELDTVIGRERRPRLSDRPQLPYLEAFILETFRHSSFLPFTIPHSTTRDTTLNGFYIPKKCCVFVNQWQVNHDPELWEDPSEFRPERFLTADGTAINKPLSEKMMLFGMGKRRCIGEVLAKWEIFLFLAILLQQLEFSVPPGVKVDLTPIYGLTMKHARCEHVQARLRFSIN

3A4 = 3A4 (Homo sapiens, UniProt P08684)
2A6 = biological target: T3, 2A6 (Homo sapiens, UniProt P11509)
T3 sequence (P11509 1-494): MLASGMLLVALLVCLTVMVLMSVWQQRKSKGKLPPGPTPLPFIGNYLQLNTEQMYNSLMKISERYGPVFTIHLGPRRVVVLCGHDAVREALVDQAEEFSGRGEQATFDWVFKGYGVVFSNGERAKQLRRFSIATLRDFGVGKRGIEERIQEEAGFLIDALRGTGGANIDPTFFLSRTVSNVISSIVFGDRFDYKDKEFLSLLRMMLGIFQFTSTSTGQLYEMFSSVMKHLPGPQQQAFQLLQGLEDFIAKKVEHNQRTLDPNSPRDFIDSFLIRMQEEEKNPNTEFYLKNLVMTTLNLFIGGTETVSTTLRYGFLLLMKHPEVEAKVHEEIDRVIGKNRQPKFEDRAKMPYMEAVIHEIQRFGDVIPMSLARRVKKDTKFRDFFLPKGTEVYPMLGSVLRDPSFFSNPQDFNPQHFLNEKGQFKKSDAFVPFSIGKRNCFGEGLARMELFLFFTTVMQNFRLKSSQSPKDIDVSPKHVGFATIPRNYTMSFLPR

[1] = tablets
[2] = hypertensive patients

Chain of 3A4 (P08684 whole entry): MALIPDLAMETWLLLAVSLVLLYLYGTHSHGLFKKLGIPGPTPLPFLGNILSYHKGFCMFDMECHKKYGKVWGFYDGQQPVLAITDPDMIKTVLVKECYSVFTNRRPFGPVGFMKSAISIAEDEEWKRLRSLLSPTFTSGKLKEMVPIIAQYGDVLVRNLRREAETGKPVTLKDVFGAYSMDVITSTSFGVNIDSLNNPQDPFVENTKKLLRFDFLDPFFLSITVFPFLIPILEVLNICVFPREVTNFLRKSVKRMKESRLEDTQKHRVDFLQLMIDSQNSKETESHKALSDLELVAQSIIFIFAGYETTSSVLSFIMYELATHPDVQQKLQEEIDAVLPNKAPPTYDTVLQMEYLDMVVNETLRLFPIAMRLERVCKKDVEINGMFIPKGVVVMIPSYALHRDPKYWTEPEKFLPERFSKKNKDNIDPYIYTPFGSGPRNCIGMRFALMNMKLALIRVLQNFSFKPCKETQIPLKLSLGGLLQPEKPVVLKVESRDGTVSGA
Chain of 2D6 (P10635 whole entry): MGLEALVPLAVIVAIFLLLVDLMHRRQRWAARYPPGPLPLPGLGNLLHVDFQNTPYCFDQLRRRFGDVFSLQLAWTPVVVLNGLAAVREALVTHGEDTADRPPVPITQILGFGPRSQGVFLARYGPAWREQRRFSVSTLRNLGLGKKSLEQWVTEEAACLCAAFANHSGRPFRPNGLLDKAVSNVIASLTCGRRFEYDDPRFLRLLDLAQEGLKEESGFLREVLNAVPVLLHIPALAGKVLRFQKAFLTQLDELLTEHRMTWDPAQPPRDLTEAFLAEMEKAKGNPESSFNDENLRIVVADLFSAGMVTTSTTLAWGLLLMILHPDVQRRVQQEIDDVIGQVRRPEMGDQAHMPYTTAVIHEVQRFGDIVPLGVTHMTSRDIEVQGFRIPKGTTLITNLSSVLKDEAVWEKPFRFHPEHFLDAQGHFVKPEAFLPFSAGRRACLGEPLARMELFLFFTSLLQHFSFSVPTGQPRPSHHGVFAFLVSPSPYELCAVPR

Row | SMILES | parent compound excreted in the urine (in vivo, po) | metabolites excreted in the urine (urine, oral) | inhibition (2D6) | inhibition (2C8/9) | inhibition (2B6) | inhibition (CYP 1A2 isoenzyme) | inhibition (3A4) | inhibition (2A6) | time required for therapeutic response, initially [1] | time required for therapeutic response, peak [1] | converted to inactive metabolites via hepatic metabolism (in vivo, po) | time of peak concentration (in vivo, po) | circulating drug bound to plasma protein [2]
1 | CCOC(=O)C1=C(COCCN)NC(C)=C(C(=O)OC)C1c1ccccc1Cl (stereo not shown) [amlodipine] | 10% | 60% | weaker inhibition | weaker inhibition | weaker inhibition | moderately inhibited | weaker inhibition | weaker inhibition |  |  |  |  | 
2 | CCOC(=O)C1=C(COCCN)NC(C)=C(C(=O)OC)C1c1ccccc1Cl (stereo not shown) [amlodipine maleate] |  |  |  |  |  |  |  |  | 7 days | about 14 days | About 90% | 6 to 12 h | Approximately 93%
